Format in all cases: cell-based, human
Experiment [1] has as its system THP-1 cells. The experiment in a line: Cytokine and chemokine release from PMA-treated THP-1 cells by ELISA. Particulars: DDR1b-overexpressing THP-1 cells, PMA, collagen-coated plates, 48 hours. As to the method:
The production of DDR1a- or 1b-overexpressing THP-1 cells was previously described (Kamohara et al., FASEB J. 15:2724, 2001). Briefly, the human monocytic leukemic cell line, THP-1, was transduced with control retrovirus containing the vector only (mock-transduced) or retrovirus expressing DDR1a or DDR1b. THP-1 cells transduced by each virus were selected with G418, and cloned by limiting dilution. The cloned THP-1 cells were maintained in RPMI 1640 medium supplemented with 100 μg/ml gentamycin and 10% FCS (complete medium). Cells were plated at 1×10^6/ml and treated with PMA (10 nM) for variable times on uncoated or collagen-coated tissue culture plates for quantification of cytokine or chemokine release.
In addition, the concentration of MCP-1 in the culture supernatant of each cell line was measured by ELISA. The concentration of MCP-1 was measured in the Lymphokine Testing Laboratory, Clinical Services Program, SAIC-Frederick (Frederick, Md.) by using an enzyme-linked immunosorbent assay (ELISA) kit (R&D Systems, Minneapolis, Minn.) specific for the chemokine.
In addition, the concentrations of IL-1β, IL-8, and MIP-1α in the culture supernatants of each cell line were quantified by ELISA (FIG. 6). The concentration of IL-1β, IL-8, and MIP-1α were measured in the Lymphokine Testing Laboratory, Clinical Services Program, SAIC-Frederick (Frederick, Md.) by using enzyme-linked immunosorbent assay (ELISA) kits (R&D Systems, Minneapolis, Minn.) specific for each human cytokine and chemokine. […]
In general terms: An ELISA detects its analyte on a solid surface through an enzyme-linked reagent.

For experiment [2], the system named is NF-κB. The experiment in a line: Nuclear translocation of NF-κB by EMSA. Particulars: DDR1b-overexpressing cells on collagen-coated plates. As to the method: Nuclear translocation of NF-κB was examined by EMSA. Nuclear extracts were prepared by a method previously reported (Ueda et al., J. Biol. Chem. 272:31092, 1997), and aliquots were frozen at −80° C. For EMSA, end-labeled ^32P-oligonucleotide probes corresponding to the NF-KB binding site of the Ig κ-chain (5′-[…]-3′) (SEQ ID NO: 15) or MCP-1 (A2 site; 5′-[…]-3′) (SEQ ID NO: 16) gene were used. Each probe was incubated with 5 μg of nuclear extracts in 20 μl of binding cocktail (50 mM Tris-HCl, pH 7.4, 25 MM MgCl2, 0.5 mM DTT, 50% glycerol) at 4° C. for 15 minutes. The DNA-protein complexes were resolved on a 5% polyacrylanide gel. The dried gels were exposed to X-ray films.

Experiment [3] has as its system NF-κB. Put plainly: NF-κB luciferase reporter assay in THP-1 cells. The following applies: DDR1b-overexpressing cells, 12 hours. As to the method:
For the results shown in FIG. 7A, mock-transduced or DDR1b-overexpressing THP-1 cells were transfected with 10 μg of the NF-κB-Luc plasmid and 5 μg of pSV-β-galactosidese plasmid DNA (Promega, Madison, Wis.) per 100-mm tissue culture plate using Effectene Transfection Reagent (Qiagen, Valencia, Calif.), according to the manufacture's protocol. After a 12-hour incubation, cells were rinsed with phosphate buffered saline (PBS) and then incubated with 10 nM PMA on collagen-coated plates in the presence of absence of SB203580, PD98059, CAPE or dimethlysulfoxide (DMSO) for another 12 hours. Cells were collected and lysed using the Reporter Lysis Buffer (Promega, Madison, Wis.), and luciferase activity and β-galactosidase activities were measured according to the protocol provided by the manufacturer. The resulting luciferase activity was corrected based on the β-galactosidase activity in the same cell extract. For the results shown in FIG. 7B, DDR1b-overexpressing THP-1 cells were transfected with 10 μg of the pGLM-ENH, or pGLM-MA1MA2 (Ueda et al., J. Bio. Chem. 272: 31092-9, 1997) and 5 μg of pSV-β-galactosidese plasmid DNA (Promega, Madison, Wis.) per 100-mm tissue culture plate using Effectene Transfection Reagent (Qiagen, Valencia, Calif.) according to the manufacture's protocol. […] Cells were collected and lysed using the Reporter Lysis Buffer (Promega, Madison, Wis.), and luciferase activity and β-galactosidase activities were measured according to the protocol provided by the manufacturer. […]
Mock-transduced or DDR1b-overexpressing THP-1 cells were transfected with 10 μg of the NF-κB-Luc plasmid, pGL-ENH, or pGL-MA1MA2 and 5 μg of pSV-β-galactosidase plasmid DNA (Promega, Madison, Wis.) per 100-mm tissue culture plate using Effectene Transfection Reagent (Qiagen, Valencia, Calif.) according to the manufacture's protocol. […] Luciferase activity and β-galactosidase activities were measured according to the protocol provided by the manufacturer. […]
A general note: A reporter such as luciferase makes a cellular process visible.

Experiment [4] deals with DDR1 mRNA. Put plainly: DDR1 mRNA expression in PBMC by Northern blotting. The following applies: 8 hours, TNF-α 5 ng/ml, IL-1β 10 ng/ml, IFN-γ 50 U/ml, GM-CSF 10 ng/ml, LPS 1 μg/ml, PHA 5 μg/ml. As to the method:
PMN and PBMC were maintained at a density of 5×10^6 cells/ml in the complete medium in six-well tissue culture cluster (Coster, Cambridge, Mass.; 3 ml/well). Total RNA was extracted from each culture by using TRIZOL® Reagent. PolyA mRNA was purified on Oligotex columns (Qiagen, Valencia, Calif.). Northern blot analysis was performed as described (Yoshimura, J. Immunol. 150:5025, 1993), except that ULTRAhyb (Ambion) was used. A human DDR1 cDNA (757-bp) was obtained by PCR from a U-105 human glioblastoma cell line cDNA library and was ligated into the EcoRI/HindIII site of the pBluescript (Stratagene, La Jolla, Calif.). The sense primer was 5′-[…]-3′ (SEQ ID NO: 2; corresponding to residues between 68 and 87 in the nucleotide sequence of the trkE cDNA, GenBank accession number X74979) and the antisense primer was 5′-[…]-3′ (SEQ ID NO: 3; corresponding to residues between 805 and 824 in the nucleotide sequence of the trkE cDNA).
Freshly isolated PBMC expressed only a low level of DDR1 mRNA. The expression level was increased about eightfold when the cells were incubated in either RPMI 1640 or RPMI 1640 containing 10% FCS.

Experiment [5] concerns DDR1 protein. The experiment in a line: DDR1 protein expression in leukocytes by immunoprecipitation and Western blotting. As to the method: For Western blot analysis, cell lysates were prepared from freshly isolated PBMC, PBMC incubated overnight in RPMI 1640 containing 10% FCS, and MCF-7 cells. Cells were lysed on ice for 20 minutes in a buffer containing 50 mM Hepes, 150 mM NaCl, 1% Triton X-100, 10% glycerol, 10 mM NaF, 1 mM ethylenediamine tetraacetic acid, […], 1 mg/ml leupeptin, 1 mM phenylmethylsulfonyl fluoride, 1 mg/ml aprotinin, and 1 mg/ml pepstatin A. The lysates were spun, and the supernatants were collected. The samples were incubated with approximately 20 μl packed volume of PGS for 1 hour at 4° C. After centrifugation, supernatants were collected, mixed with 1 μg/ml normal rabbit IgG or polyclonal anti-human DDR1 IgG, and incubated for 1 hour at 4° C. PGS (20 μl) was then added and incubated for another 1 hour. IgG-coupled PGS was washed with the buffer containing 50 mM Hepes, 150 mM NaCl, 0.1% Triton X-100, 10% glycerol buffer three times, and 20 μl double-strength sample buffer (20% glycerol, 6% sodium dodecylsulfate (SDS), 10% 2-mercaptoethanol) was added. The samples were boiled for 10, minutes. Eluted proteins were analyzed on 7.5% polyacrylamide gels by SDS polyacrylamide gel electrophoresis (SDS-PAGE) and transferred electrophoretically to nitrocellulose membranes (Amersham, Arlington Heights, Ill.) at 200 mA for 2 hours by a semi-dry system. The membranes were incubated with polyclonal anti-human DDR1 or anti-phosphotyrosine IgG, followed by sheep anti-mouse IgG coupled with horseradish peroxidase (Amersham). Peroxidase activity was visualized by the Enhanced Chemiluminescence Detection System (Amersham).
There was no detectable DDR1 protein in freshly isolated PBMC. DDR1 protein was detected clearly after overnight incubation in RPMI 1640 containing 10% FCS. In order to study the kinetics of DDR1 protein expression, PBMC were incubated with or withour addition of TNF-α (5 ng/ml), or GM-CSF (10 ng/ml) for 36 hours and cell lysates were prepared. Cell lysates were subjected to immunoprecipitation with anti-DDR1 IgG or control IgG. […]
On the technique in general: Immunoblotting shows a protein as a band on a membrane.

The subject of experiment [6] is DDR1. Put plainly: Cell-surface DDR1 expression on PMN by flow cytometry. The following applies: 24 hours. As to the method: PMN were incubated in presence of IFN-γ or GM-CSF for 24 hours and the expression of cell-surface DDR1 was measured by flow cytometry using an antibody raised against the extracellular domain of the receptor. One hundred thousand cells were suspended in 50 μl of cold PBS containing 0.1% NaN3, […] BSA and 200 μg/ml human IgG in a Falcon 2052, tube, and incubated for 10 minutes on ice. One μg of anti-DDR1 rabbit polyclonal antibody raised aginst the N-terminus of DDR1 (Transgenic, Inc., Kumamoto, Japan), or control mouse IgG was added to each tube and the cells were incubated for another 15 minutes on ice. The cells were washed with PBS, and then incubated with 1 μg of FITC-conjugated goat anti-mouse IgG for 15 minutes on ice. At the end of incubation, PI was added to each tube (100 μM). The cells were washed by PBS, and subsequently analyzed by using a FACS scan (Becton Dickinson). Dead cells, determined by the incorporation of PI, were gated out. Results were processed by using the Cellquest software (Becton Dickinson).

The subject of experiment [7] is PMN. Put plainly: MCP-1 release by PMN (neutrophils), ELISA. As to the method:
Human PMN and peripheral blood mononuclear cells (PBMC) were obtained from heparinized blood from human donors (10 units of heparin per ml of blood). One volume of 5% dextran (T-500 Pharmacia, Piscataway, N.J.) in phosphate buffered saline (PBS) was added to three volumes of blood in 50 ml polypropylene tubes. After a 40 minute incubation at room temperature, the leukocyte-rich plasma layer was removed and overlaid onto Lymphoprep in 50 ml tubes and the tubes were centrifuged at 800×g for 20 minutes at room temperature. PMN were separated from erythrocytes by lysis in 0.2% NaCl, washed in complete medium three times at 4° C. and resuspended in complete medium. PBMC contained in the PMN preparations obtained by this method were less than 0.5% by morphologic examination. Cell viability was higher than 98% by trypan blue staining.
A panel of cytokines was previously tested for their ability to induce MCP-1 production in PMN and it was reported that TNF-α and IFN-γ could cooperate to induce a high level of MCP-1 production (Yamashiro et al., J. Leukoc. Biol. 69:698, 2001). […] The majority of MCP-1 was released between 24 hours and 48 hours, showing a delayed kinetics of MCP-1 release. […] The effect of IFN-γ was dose-dependent.
To confirm that activation of DDR1 was responsible for the increased release of MCP-1 by PMN treated with IFN-γ and collagen, 513 anti-DDR1 Ab was used instead of collagen. The concentrations of MCP-1 were measured in the Lymphokine Testing Laboratory, Clinical Services Program, SAIC-Frederick (Frederick, Md.) with an ELISA kit (R&D Systems) specific for human MCP-1.

The results in this text go back to patent US7855076B2, “Use of discoidin domain receptor 1 (DDR1) and agents that affect the DDR1/collagen pathway” (The United States of America as represented by the …, priority 2002, dated 2010).

Regarding `O=C(/C=C/c1ccc(O)c(O)c1)OCCc1ccccc1` [CAPE], in experiment [1], the “collagen-induced up-regulation of IL-8 release” value is listed as “inhibited”, the “collagen-induced up-regulation of MCP-1 release” value is given as “inhibited” and the “collagen-induced up-regulation of MIP-1α release” value is given as “inhibited”. Further, the “increased NF-κB/DNA binding” value in experiment [2] is recorded as “completely abolished”. Also, the “increase in luciferase activity induced by PMA plus collagen” value in experiment [3] is recorded as “completely inhibited”.
Turning to “GM-CSF: human recombinant granulocyte macrophage-colony stimulating factor”, the “level of DDR1 mRNA expression” value in experiment [4] is on record as “further augmented”. Also, the “level of DDR1 protein expression” value in experiment [5] (PBMC, TNF-α 5 ng/ml or GM-CSF 10 ng/ml, 36 hours) was “increased”. The DDR1 protein expression result in experiment [5] (monocytes) is reported as “increased”. In experiment [6], the “level of DDR1 expression” value is “slightly increased”.

B1: IFN-γ: human recombinant interferon-γ (protein, UniProt P01579 24-161, looked up)
Interferon gamma: QDPYVKEAENLKKYFNAGHSDVADNGTLFLGILKNWKEESDRKIMQSQIVSFYFKLFKNFKDDQSIQKSVETIKEDMNVKFFNSNKKKRDDFEKLTNYSVTDLNVQRKAIHELIQVMAELSPAAKTGKRKRSQMLFRG
Turning to B1, in experiment [4], the “level of DDR1 mRNA expression” value is listed as “partially inhibited”. Besides, the MCP-1 production result in experiment [7] (PMN on collagen-coated plates with IFN-γ) is recorded as “potent synergistic effect”. In addition, the MCP-1 release result in experiment [7] (PMN, IFN-γ alone, uncoated plates) is “no significant MCP-1 release”. Also, in experiment [7] (PMN, collagen-coated plates), the “dose dependence of effect on MCP-1 release” value is on record as “dose-dependent”. Besides, the “level of DDR1 expression” value in experiment [6] was “markedly increased”.
